{
  "source": "patent US20080292580A1",
  "about": "“Treatment of Inflammatory Diseases” (UNIVERSITY COLLEGE LONDON HOSPITALS NHS FOUNDATION, priority 2004, published 2008)",
  "tested_on": "normal mice",
  "assay": "Toxic effects of PEG-saline infusion in normal mice",
  "details": "mouse, in vivo",
  "procedure": "In this example, the toxic effects of high molecular weight polyethylene glycol at high concentrations were compared to the effects of low molecular weight polyethylene glycol at even higher concentrations.\nNormal mice, which were not subjected to zymozan or lipopolysaccharide injections, were infused (25 ml/kg) with either PEG-200-saline solution at a PEG-200 concentration of 100 mg/ml or PEG-4000-saline solution at a PEG-4000 concentration of 30 mg/ml.",
  "data": [
    {"substance": "polyethylene glycol [PEG 200-saline]", "values": [
      {"measurement": "survival of normal mice", "value": "survived"}
    ]}
  ]
}
